Source: patent US8198267B2, “Substituted oxazolidinones and their use” (Bayer Intellectual Property GmbH, priority 2007, dated 2012)

Columns and labels:
[1] = target: T1, factor Xa (Homo sapiens, UniProt P00742); experiment: Factor Xa-inhibitory activity of the potential inhibitors in plasma samples; type: biochemical; conditions: citrate plasma (Octapharma); factor X activated by rattlesnake toxin (RVV); ChromozymX chromogenic substrate, 405 nm
T1 construct: tissue Octapharma; host or cells: citrate plasma
T1 sequence (P00742 235-488 limits assumed): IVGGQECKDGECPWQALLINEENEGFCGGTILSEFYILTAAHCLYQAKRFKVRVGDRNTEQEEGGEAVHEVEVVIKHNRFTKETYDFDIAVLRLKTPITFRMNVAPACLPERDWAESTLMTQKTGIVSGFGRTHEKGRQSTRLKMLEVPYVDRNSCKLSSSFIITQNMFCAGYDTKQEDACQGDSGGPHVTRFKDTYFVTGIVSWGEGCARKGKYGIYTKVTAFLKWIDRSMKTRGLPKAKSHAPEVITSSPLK
T1 sequence (P00742 41-179 limits assumed): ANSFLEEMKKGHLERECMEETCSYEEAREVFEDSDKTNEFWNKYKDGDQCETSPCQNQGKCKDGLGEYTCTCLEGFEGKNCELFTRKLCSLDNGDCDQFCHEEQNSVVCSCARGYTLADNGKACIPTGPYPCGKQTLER
Description: a.4) Determination of the Factor Xa-Inhibitory Activity of the Potential Inhibitors in Plasma Samples
To determine the inhibition of factor Xa in plasma samples, the factor X present in plasma is activated by a protease from rattlesnake toxin. The factor Xa activity or its inhibition by potential inhibitors is then measured by addition of a chromogenic substrate.
Various concentrations of the substances to be tested are dissolved in dimethyl sulfoxide and diluted with an aqueous refludan solution (10 μg/ml). In clear 96-well plates having a flat bottom, 30 μl of citrate plasma (Octapharma) are mixed with 10 μl of the substance dilution. Then, either 20 μl of a solution of a rattlesnake toxin (Russel viper venom (RVV); RVV reagent: Pentapharm 121-06, final concentration 0.6 mU) in an aqueous calcium chloride solution buffer (final concentration of calcium chloride 0.05 M) or 20 μl of the aqueous calcium chloride solution (final concentration of calcium chloride 0.05 M) without RVV reagent (as reference for an unstimulated sample) are added. After addition of 20 μl of ChromozymX substrate (final concentration 1.6 mmol/l, Bachem L-1565, diluted in water) the samples are measured in a SpectraFluor Reader using a measurement filter of 405 nm each minute over a period of 20 minutes. The IC50 value is determined when about 70% of the maximum signal is reached (about 12 min).

[2] = target: thrombin (Homo sapiens, UniProt P00734); experiment: Thrombin-inhibitory activity of the potential inhibitors in plasma samples; type: biochemical; conditions: citrate plasma (Octapharma); ecarin stimulation; fluorogenic thrombin substrate, 360/465 nm
Description: a.5) Determination of the Thrombin-Inhibitory Activity of the Potential Inhibitors in Plasma Samples
Various concentrations of the substances to be tested are dissolved in dimethyl sulfoxide and diluted with water.

| SMILES | IC50 [1] | IC50 [2] |
| --- | --- | --- |
| CCOc1cccn(-c2ccc(N3C[C@H](CNC(=O)c4ccc(Cl)s4)OC3=O)cc2C)c1=O [Example 4, 5-Chloro-N-({(5S)-3-[4-(3-ethoxy-2-oxopyridin-1(2H)-yl)-3-methylphenyl]-2-oxo-1,3-oxazolidin-5-yl}methyl)thiophene-2-carboxamide] | 201 nM | 286 nM |
| CC(=O)COc1cccn(-c2ccc(N3C[C@H](CNC(=O)c4ccc(Cl)s4)OC3=O)cc2C)c1=O [Example 7, 5-Chloro-N-[((5S)-3-{3-methyl-4-[2-oxo-3-(2-oxopropoxy)pyridin-1(2H)-yl]phenyl}-2-oxo-1,3-oxazolidin-5-yl)methyl]thiophene-2-carboxamide] | 206 nM | 277 nM |
| Cc1cc(N2C[C@H](CNC(=O)c3ccc(Cl)s3)OC2=O)ccc1-n1cccc(OCC(C)(C)O)c1=O [Example 9, 5-Chloro-N-[((5S)-3-{4-[3-(2-hydroxy-2-methylpropoxy)-2-oxopyridin-1(2H)-yl]-3-methylphenyl}-2-oxo-1,3-oxazolidin-5-yl)methyl]thiophene-2-carboxamide] | 149 nM | 247 nM |
| Cc1cc(N2C[C@H](CNC(=O)c3ccc(Cl)s3)OC2=O)cc(C)c1-n1cccc(OCCO)c1=O [Example 16, 5-Chloro-N-{[(5S)-3-{4-[3-(2-hydroxyethoxy)-2-oxopyridin-1(2H)-yl]-3,5-dimethylphenyl}-2-oxo-1,3-oxazolidin-5-yl]methyl}thiophene-2-carboxamide] | 213 nM | 14 nM |
| CCOc1nccn(-c2ccc(N3C[C@H](CNC(=O)c4ccc(Cl)s4)OC3=O)cc2C)c1=O [Example 18, 5-Chloro-N-({(5S)-3-[4-(3-ethoxy-2-oxopyrazin-1(2H)-yl)-3-methylphenyl]-2-oxo-1,3-oxazolidin-5-yl}methyl)thiophene-2-carboxamide] | 319 nM | 502 nM |
| CCCc1cc(N2C[C@H](CNC(=O)c3ccc(Cl)s3)OC2=O)ccc1-n1ccccc1=O [Example 19] | 361 nM | 8 nM |
| COCc1cc(N2C[C@H](CNC(=O)c3ccc(Cl)s3)OC2=O)ccc1N1CCCCC1=O [Example 27, 5-Chloro-N-({(5S)-3-[3-(methoxymethyl)-4-(2-oxopiperidin-1-yl)phenyl]-2-oxo-1,3-oxazolidin-5-yl}methyl)thiophene-2-carboxamide] | 39 nM | 54 nM |
| O=C(NC[C@H]1CN(c2ccc(N3CCOCCC3=O)c(C3CC3)c2)C(=O)O1)c1ccc(Cl)s1 [Example 30, 5-Chloro-N-({(5S)-3-[3-cyclopropyl-4-(5-oxo-1,4-oxazepan-4-yl)phenyl]-2-oxo-1,3-oxazolidin-5-yl}methyl)thiophene-2-carboxamide] | 25 nM | 34 nM |
| CC(C)c1cc(N2C[C@H](CNC(=O)c3ccc(Cl)s3)OC2=O)ccc1N1CCCNC1=O [Example 32, 5-Chloro-N-({(5S)-3-[3-isopropyl-4-(2-oxotetrahydropyrimidin-1(2H)-yl)phenyl]-2-oxo-1,3-oxazolidin-5-yl}methyl)thiophene-2-carboxamide] | 70 nM | 151 nM |
| COc1cc(N2C[C@H](CNC(=O)c3ccc(Cl)s3)OC2=O)ccc1N1CCCN(C)C1=O [Example 35, 5-Chloro-N-({(5S)-3-[3-methoxy-4-(3-methyl-2-oxotetrahydropyrimidin-1(2H)-yl)phenyl]-2-oxo-1,3-oxazolidin-5-yl}methyl)thiophene-2-carboxamide] | 552 nM | 390 nM |
| O=C(NC[C@H]1CN(c2ccc(N3CCCN(CCO)C3=O)c(C(F)(F)F)c2)C(=O)O1)c1ccc(Cl)s1 [Example 38, 5-Chloro-N-{[(5S)-3-{4-[3-(2-hydroxyethyl)-2-oxotetrahydropyrimidin-1(2H)-yl]-3-(trifluoro-methyl)phenyl}-2-oxo-1,3-oxazolidin-5-yl]methyl}thiophene-2-carboxamide] | 252 nM | – |
